{"source": "patent US20250092383A1", "about": "“COMPOUNDS AND METHODS FOR FBXO22-MEDIATED PROTEIN DEGRADATION” (Northwestern University, priority 2023, published 2025)", "key": {"FKBP12 [1]": {"biological_target": "T1, FKBP12 (Homo sapiens, UniProt P62942)", "T1 sequence (P62942 whole entry)": "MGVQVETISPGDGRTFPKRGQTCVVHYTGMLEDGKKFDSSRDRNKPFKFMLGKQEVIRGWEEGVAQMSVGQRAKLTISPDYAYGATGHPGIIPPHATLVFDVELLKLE", "experiment": "MS-based global proteomic analysis in A549 parental and FBXO22 knockout cells (FKBP12)", "assay_type": "cell-based", "design": "expressed in transfected cells", "details": "2 μM, 24 hours", "experimental": "(§1) The bar graph represents quantification of the FLAG-FKBP12/HSP90 protein content. Data are presented as the mean values±s.e.m. […] HEK293T cells expressing HA-FBXO22 were treated with 0.025-15 μM 22-SLF for 8 h. The graph represents quantification of the FLAG-FKBP12/HSP90 protein content. Data are presented as the mean values (n=2 biological independent samples). […] The bar graph represents quantification of the FLAG-FKBP12/HSP90 protein content. KO, knockout; WT, wild type. Data are presented as the mean values (n=2 biological independent samples). […] The bar graph represents quantification of the FLAG-FKBP12/HSP90 protein content. Data are presented as the mean values±s.e.m. […] The result is representative of two independent experiments with similar results. WCL, whole-cell lysate; IP, immunoprecipitate.\nData is obtained from Gene Expression Profiling Interactive Analysis (GEPIA). […] KDM4A and KDM4B are two reported substrates of FBXO22.\nAs an F-box protein, FBXO22 is a pivotal player in the context of tumor progression. FBXO22 has many oncogenic functions, including propelling the ubiquitination and subsequent degradation of a diverse spectrum of substrates, such as histone lysine demethylase 4 subfamily KDM4A/B, methylated p53, p21, PTEN, KLF4, and LKB1. […]"}, "FKBP12 [2]": {"biological_target": "T1, FKBP12", "experiment": "Western blot of FLAG-FKBP12 degradation in HEK293T cells expressing HA-FBXO22", "assay_type": "cell-based", "design": "expressed in transfected cells; host or cells: HEK293T", "experimental": "as §1\nFIGS. 3A-3H show FBXO22 C227 and C228 are involved in 22-SLF-mediated degradation of FKBP12. […] Among 5,650 quantified IA-DTB-modified peptides, four cysteines were identified on FBXO22 (C83, C117, C228, and C365). […] Data are presented as the mean values (n=2 biological independent samples for DMSO treatment; n=3 biological independent samples for 22-SLF Treatment). […] The bag graph represents quantification of the FLAG-FKBP12/HSP90 protein content. Data are presented as mean values (n=2 biological independent samples). […] The bar graph represents quantification of the FLAG-FKBP12/HSP90 protein content. Data are presented as the mean values (n=2 biological independent samples).\nFIG. 11A-11B show the acrylamide variant of 22-SLF, 22a-SLF, induced the degradation of FKBP12. […] HEK293T cells expressing HA-FBXO22 were treated with 0.5, 1, or 2 μM of 22-SLF or 22a-SLF for 8 hours. The graph represents quantification of the FLAG-FKBP12/HSP90 protein content. Data are presented as mean values (n=2 biological independent samples).\nNext, Western blot analysis was used to measure the degradation of FKBP12 induced by 22-SLF. To achieve this, FLAG-tagged FKBP12 and HA-tagged FBXO22 were stably overexpressed in HEK293T cells, followed by subjecting the cells to varying concentrations of 22-SLF. […] Moreover, 22-SLF's effect on FLAG-FKBP12 degradation was concentration-dependent (FIG. 2a). […] The rescue enabled by MLN4924 indicates the involvement of a Cullin-RING ligase (CRL) in the degradation process. This is consistent with FBXO22 belonging to SKP1-CUL1-F-box protein (SCF) ubiquitin ligase complexes, a subfamily of CRL. […] To provide a more comprehensive insight into 22-SLF-induced FKBP12 degradation, a dose-dependent degradation experiment using 11 concentrations of 22-SLF ranging from […] to 15 μM was conducted. This experiment enabled determination of two parameters, the Dmax value, which reached 89%, and the half-maximal degradation concentration (DC50) value, which measured at 0.5 μM (FIG. 2B). […] Collectively, this array of data supports the canonical mechanism of ligand-induced protein degradation. In this mechanism, 22-SLF orchestrates the recruitment of FBXO22 to FKBP12, culminating in the proteasomal degradation of FKBP12.\nTo identify the cysteine residue(s) in FBXO22 engaged with 22-SLF, HA-FBXO22-expressing HEK293T cells were treated with either DMSO or 22-SLF (2 μM, 2 hours). Using competitive cysteine-directed activity-based protein profiling (ABPP), a chemical proteomics for the measurement of target engagement, the degree of blockade of iodoacetamide-desthiobiotin (IA-DTB)-modified cysteines on FBXO22 was quantified. From a pool of 5,650 quantified IA-DTB-modified peptides, four cysteines on FBXO22 (C83, C117, C228, and C365) (FIG. 3a) were identified, with approximately 20% of FBXO22 C228 being blocked by 22-SLF treatment (FIG. 3b), indicating the potential interaction with this cysteine by 22-SLF. Consequently, C228 was mutated to alanine and HA-FBXO22 C228A-expressing HEK293T cells were generated (FIG. 3c). […]"}}}
{"compound": "CCC(C)(C)C(=O)C(=O)N1CCCC[C@H]1C(=O)O[C@H](CCc1ccc(OC)c(OC)c1)c1cccc(OCC(=O)NCCCOCCOCCOCCCN(C(=O)CCl)C(C(=O)NCc2ccccc2)c2nc3ccccc3s2)c1", "note": "(some centres unmarked) [22-SLF]", "values": [{"measurement": "Selectivity of FKBP12 degradation in global proteomics", "setting": "FKBP12 [1]", "value": "selective degradation of endogenous FKBP12 in FBXO22 wildtype, but not knockout context"}, {"measurement": "DC50", "setting": "FKBP12 [2]; 11 concentrations, 0.25 to 15 μM, 8 h, HEK293T expressing HA-FBXO22, read-out: half-maximal degradation concentration (DC50)", "value": 500, "unit": "nM"}, {"measurement": "Concentration dependence of FLAG-FKBP12 degradation", "setting": "FKBP12 [2]; HEK293T cells expressing HA-FBXO22", "value": "concentration-dependent"}, {"measurement": "FKBP12 degradation with FBXO22 double mutant C227AC228A", "setting": "FKBP12 [2]; HEK293T cells expressing the variant", "value": "completely blocked"}, {"measurement": "FKBP12 degradation with FBXO22 single mutants C227A and C228A", "setting": "FKBP12 [2]; HEK293T cells expressing the variants", "value": "partially impeded"}, {"measurement": "Loss of FLAG-FKBP12 expression in cells lacking HA-FBXO22", "setting": "FKBP12 [2]; HEK293T cells without HA-FBXO22", "value": "no reduction was observed"}, {"measurement": "Dmax", "setting": "FKBP12 [2]; HEK-293T, 11 concentrations, 0.25 to 15 μM, 8 h, HEK293T expressing HA-FBXO22", "value": 89, "unit": "%"}, {"measurement": "Time to nearly complete FLAG-FKBP12 degradation", "setting": "FKBP12 [2]; time course", "value": "≤ 2", "unit": "h"}]}
